Values of other authors, collected in patent publication US6107342A, “2-amino-bicyclo[3.1.0]hexane-2,6-dicarboxylic acid derivatives and a process for the preparation thereof” (Hoffmann-La Roche Inc., priority 1998, dated 2000).

Columns and labels:
[1] = biological target: mGluR2; settings: Mol. Pharmacology, Vol.53, 228-233 (1998)
[2] = biological target: group II metabotropic glutamate receptor; settings: antagonism of inhibition by LY354740; Mol. Pharmacology, Vol.53, 228-233 (1998)
[3] = biological target: mGluR3; settings: Mol. Pharmacology, Vol.53, 228-233 (1998)

For N[C@]1(C(=O)O)[C@H]2[C@@H](C[C@H]1O)[C@@H]2C(=O)O [I-A, (1S,2R,3R,5R,6S)-2-amino-3-hydroxy-bicyclo [3.1.0]hexane-2,6-dicarboxylic acid], the Ki [1] is given as 52 nM, the pKB [2] is given as 6.0 and the Ki [3] is given as 89 nM.
